# Experimental data published in article PMC12090182, “Repurposing of the RIPK1-Selective Benzo[1,4]oxazepin-4-one Scaffold for the Development of a Type III LIMK1/2 Inhibitor” (ACS Chemical Biology, 2025).
# System: MRC-9 cells
# Experiment: Multiplex high-content viability assessment
# Type: cell-based
# Conditions: human fibroblast
# In short: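 HEK293T and U2OS cells (DMEM) and MRC-9 fibroblasts (EMEM) exposed to compounds at 1 and 10 μM. Live-cell confocal imaging of cell shape and fluorescence before and at 12, 24 and 48 h. Normalized to 0.1% DMSO; biological duplicates with SEM.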
# [1] = 1 µM, 0 h after treatment, biological replicate 1
# [2] = 1 µM, 0 h after treatment, biological replicate 2
# [3] = 1 µM, 12 h after treatment, biological replicate 1
# [4] = 1 µM, 12 h after treatment, biological replicate 2
# [5] = 1 µM, 24 h after treatment, biological replicate 1
# [6] = 1 µM, 24 h after treatment, biological replicate 2
# [7] = 1 µM, 48 h after treatment, biological replicate 1
# [8] = 1 µM, 48 h after treatment, biological replicate 2
# [9] = 10 µM, 0 h after treatment, biological replicate 1
# [10] = 10 µM, 0 h after treatment, biological replicate 2
# [11] = 10 µM, 12 h after treatment, biological replicate 1
# [12] = 10 µM, 12 h after treatment, biological replicate 2
# [13] = 10 µM, 24 h after treatment, biological replicate 1
# [14] = 10 µM, 24 h after treatment, biological replicate 2
# [15] = 10 µM, 48 h after treatment, biological replicate 1
# [16] = 10 µM, 48 h after treatment, biological replicate 2
smiles,measurement,setting,value
CC(C)C(=O)Nc1ncc(C(=O)NCCN(Cc2ccccc2)C(=O)c2ccc(S(=O)(=O)Nc3ccccc3)cc2)s1 [TH470],Cell count normalized to cells treated with DMSO control,[1],0.8608
same,Cell count per well,[1],129
same,Population Fragmented Nuclei (%),[1],29.31%
same,Population Healthy Nuclei (%),[1],61.21%
same,Population Pyknosed Nuclei (%),[1],9.48%
same,Population apoptotic cell (%),[1],36.36%
same,Population cell that influence microtubule strucutre (%),[1],19.72%
same,Population with increased mitochondrial mass (%),[1],8.45%
same,Population with membrane disruption (%),[1],1.41%
same,Cell count normalized to cells treated with DMSO control,[2],0.9307
same,Cell count per well,[2],166
same,Population Fragmented Nuclei (%),[2],25.00%
same,Population Healthy Nuclei (%),[2],44.23%
same,Population Pyknosed Nuclei (%),[2],30.77%
same,Population apoptotic cell (%),[2],35.42%
same,Population cell that influence microtubule strucutre (%),[2],44.93%
same,Population with increased mitochondrial mass (%),[2],11.59%
same,Population with membrane disruption (%),[2],10.14%
same,Cell count normalized to cells treated with DMSO control,[3],0.8102
same,Cell count per well,[3],122
same,Population Fragmented Nuclei (%),[3],23.93%
same,Population Healthy Nuclei (%),[3],62.39%
same,Population Pyknosed Nuclei (%),[3],13.68%
same,Population apoptotic cell (%),[3],43.75%
same,Population cell that influence microtubule strucutre (%),[3],27.40%
same,Population with increased mitochondrial mass (%),[3],4.11%
same,Population with membrane disruption (%),[3],2.74%
same,Cell count normalized to cells treated with DMSO control,[4],0.8825
same,Cell count per well,[4],147
same,Population Fragmented Nuclei (%),[4],34.51%
same,Population Healthy Nuclei (%),[4],42.25%
same,Population Pyknosed Nuclei (%),[4],23.24%
same,Population apoptotic cell (%),[4],36.36%
same,Population cell that influence microtubule strucutre (%),[4],73.33%
same,Population with increased mitochondrial mass (%),[4],13.33%
same,Population with membrane disruption (%),[4],15.00%
same,Cell count normalized to cells treated with DMSO control,[5],0.8356
same,Cell count per well,[5],126
same,Population Fragmented Nuclei (%),[5],27.27%
same,Population Healthy Nuclei (%),[5],57.02%
same,Population Pyknosed Nuclei (%),[5],15.70%
same,Population apoptotic cell (%),[5],63.16%
same,Population cell that influence microtubule strucutre (%),[5],34.78%
same,Population with increased mitochondrial mass (%),[5],4.35%
same,Population with membrane disruption (%),[5],1.45%
same,Cell count normalized to cells treated with DMSO control,[6],0.9099
same,Cell count per well,[6],150
same,Population Fragmented Nuclei (%),[6],42.18%
same,Population Healthy Nuclei (%),[6],40.82%
same,Population Pyknosed Nuclei (%),[6],17.01%
same,Population apoptotic cell (%),[6],56.00%
same,Population cell that influence microtubule strucutre (%),[6],61.67%
same,Population with increased mitochondrial mass (%),[6],10.00%
same,Population with membrane disruption (%),[6],18.33%
same,Cell count normalized to cells treated with DMSO control,[7],0.8239
same,Cell count per well,[7],125
same,Population Fragmented Nuclei (%),[7],33.87%
same,Population Healthy Nuclei (%),[7],54.03%
same,Population Pyknosed Nuclei (%),[7],12.10%
same,Population apoptotic cell (%),[7],60.00%
same,Population cell that influence microtubule strucutre (%),[7],41.79%
same,Population with increased mitochondrial mass (%),[7],4.48%
same,Population with membrane disruption (%),[7],1.49%
same,Cell count normalized to cells treated with DMSO control,[8],0.9026
same,Cell count per well,[8],147
same,Population Fragmented Nuclei (%),[8],48.98%
same,Population Healthy Nuclei (%),[8],42.18%
same,Population Pyknosed Nuclei (%),[8],8.84%
same,Population apoptotic cell (%),[8],69.23%
same,Population cell that influence microtubule strucutre (%),[8],61.29%
same,Population with increased mitochondrial mass (%),[8],16.13%
same,Population with membrane disruption (%),[8],9.68%
same,Cell count normalized to cells treated with DMSO control,[9],1.121
same,Cell count per well,[9],168
same,Population Fragmented Nuclei (%),[9],21.21%
same,Population Healthy Nuclei (%),[9],57.58%
same,Population Pyknosed Nuclei (%),[9],21.21%
same,Population apoptotic cell (%),[9],25.71%
same,Population cell that influence microtubule strucutre (%),[9],17.89%
same,Population with increased mitochondrial mass (%),[9],6.32%
same,Population with membrane disruption (%),[9],1.05%
same,Cell count normalized to cells treated with DMSO control,[10],0.8074
same,Cell count per well,[10],144
same,Population Fragmented Nuclei (%),[10],27.54%
same,Population Healthy Nuclei (%),[10],50.00%
same,Population Pyknosed Nuclei (%),[10],22.46%
same,Population apoptotic cell (%),[10],38.71%
same,Population cell that influence microtubule strucutre (%),[10],49.28%
same,Population with increased mitochondrial mass (%),[10],15.94%
same,Population with membrane disruption (%),[10],2.90%
same,Cell count normalized to cells treated with DMSO control,[11],1.202
same,Cell count per well,[11],181
same,Population Fragmented Nuclei (%),[11],19.88%
same,Population Healthy Nuclei (%),[11],54.97%
same,Population Pyknosed Nuclei (%),[11],25.15%
same,Population apoptotic cell (%),[11],39.53%
same,Population cell that influence microtubule strucutre (%),[11],77.66%
same,Population with increased mitochondrial mass (%),[11],9.57%
same,Population with membrane disruption (%),[11],3.19%
same,Cell count normalized to cells treated with DMSO control,[12],0.9125
same,Cell count per well,[12],152
same,Population Fragmented Nuclei (%),[12],31.25%
same,Population Healthy Nuclei (%),[12],34.03%
same,Population Pyknosed Nuclei (%),[12],34.72%
same,Population apoptotic cell (%),[12],54.00%
same,Population cell that influence microtubule strucutre (%),[12],91.84%
same,Population with increased mitochondrial mass (%),[12],14.29%
same,Population with membrane disruption (%),[12],18.37%
same,Cell count normalized to cells treated with DMSO control,[13],1.167
same,Cell count per well,[13],176
same,Population Fragmented Nuclei (%),[13],24.85%
same,Population Healthy Nuclei (%),[13],52.66%
same,Population Pyknosed Nuclei (%),[13],22.49%
same,Population apoptotic cell (%),[13],57.89%
same,Population cell that influence microtubule strucutre (%),[13],78.65%
same,Population with increased mitochondrial mass (%),[13],19.10%
same,Population with membrane disruption (%),[13],1.12%
same,Cell count normalized to cells treated with DMSO control,[14],0.825
same,Cell count per well,[14],136
same,Population Fragmented Nuclei (%),[14],34.62%
same,Population Healthy Nuclei (%),[14],32.31%
same,Population Pyknosed Nuclei (%),[14],33.08%
same,Population apoptotic cell (%),[14],44.19%
same,Population cell that influence microtubule strucutre (%),[14],88.10%
same,Population with increased mitochondrial mass (%),[14],19.05%
same,Population with membrane disruption (%),[14],16.67%
same,Cell count normalized to cells treated with DMSO control,[15],1.081
same,Cell count per well,[15],164
same,Population Fragmented Nuclei (%),[15],23.18%
same,Population Healthy Nuclei (%),[15],54.97%
same,Population Pyknosed Nuclei (%),[15],21.85%
same,Population apoptotic cell (%),[15],48.48%
same,Population cell that influence microtubule strucutre (%),[15],89.16%
same,Population with increased mitochondrial mass (%),[15],22.89%
same,Population with membrane disruption (%),[15],0.00%
same,Cell count normalized to cells treated with DMSO control,[16],0.7798
same,Cell count per well,[16],127
same,Population Fragmented Nuclei (%),[16],44.35%
same,Population Healthy Nuclei (%),[16],37.90%
same,Population Pyknosed Nuclei (%),[16],17.74%
same,Population apoptotic cell (%),[16],63.64%
same,Population cell that influence microtubule strucutre (%),[16],89.36%
same,Population with increased mitochondrial mass (%),[16],17.02%
same,Population with membrane disruption (%),[16],17.02%
